Source: US11427605B2, “Crystalline forms of 5-chloro-N4-[-2-(dimethylphosphoryl) phenyl]-N2-{2-methoxy-4-[4-(4-methylpiperazin-1-yl) piperidin-1-yl] phenyl} pyrimidine-2,4-diamine” (ARIAD Pharmaceuticals, Inc., priority 2014, dated 2022)
Converted amounts (≈) assume the structure as drawn. Like-named read-outs stand apart in the source and are kept apart here.

What was measured:
[1] = Dissolution rate from a powdered sample in water; format: physicochemical; conditions: powder, 37° C.
Procedure: For determining the dissolution rate from a powdered sample, approximately 5 mg of brigatinib (Form A or B) was weighed into a 5 mL dissolution vial and the dissolution probe was inserted into the vial. Subsequently, 4 mL of water was added at the same time the measurement was initiated. The concentration was recorded for 20 h.
For measuring the dissolution rate from powder, the test was only performed in water for Forms A and B at 37° C., as the solubilities of Forms A and B were […] enough to permit detection.

[2] = Variable humidity XRPD; format: physicochemical
Procedure: The temperature variation rate was 10° C./min.
The relative humidity was increased from the starting amount, brought up to the maximum, then dried back to the minimum value. The data collection time was 41 min at each step, time starting after equilibration of the relative humidity.
The peaks shifts were reversible at RH of about 30%. A sample of Form A was then exposed to 80% RH for 15 h. The peaks shifts had occurred after 90 min, and the extent of the shifts remained constant throughout the exposure at 80% RH for 15 h. Upon return to 10% RH, the peaks shifted to their original position. To investigate the amount of water adsorbed, a new sample of Form A was exposed for 2 h at 80% and a TGMS of this sample was measured.
For Form B, the relative humidity was measured at 30° C. The RH % values measured were 10, 30, 50, 60, 65, 70, 75, and 80%. […] At 80% RH the conversion to Form C was completed. Upon desorption, Form C dehydrates to Form B, starting at about 30% RH. At 10% RH the conversion to Form B was completed.
For Form C, a hydrate, the relative humidity was measured at 30° C. The experiment was performed starting at the maximum RH and dehydrated, then rehydrated back up to the maximum value. The RH % values measured were 10, 15, 20, 25, 30, 35, 40, 60, and 80%. Upon desorption, Form C dehydrated to Form B, starting at about 25% RH. At 10% RH, the conversion to Form B was complete. Upon sorption, Form B converted to Form C, starting at about 60% RH. At 80% RH the conversion to Form C was complete. The results are consistent with the corresponding experiments of Form B.
For Form D, a hydrate, the relative humidity was measured at 30° C. The experiment was performed starting at the maximum RH and dehydrated, then rehydrated back up to the maximum value. The RH % values measured were 10, 15, 20, 25, 30, 35, 40, 60, and 80%. […] Form C dehydrated to Form B, starting at about 20% RH. At 10% RH, the conversion to Form B was complete. Upon sorption, Form B converted to Form C, starting at about 40% RH. At 80% RH, the conversion to Form C was complete.

[3] = Dynamic vapor sorption (DVS); format: physicochemical; conditions: for Hygroscopicity: general statement
Procedure: In a […] vapor sorption (DVS) experiment with Form A, the sample was first dried at 0% RH for 6 hours. Then, the relative humidity was cycled from 5% to 95% RH (sorption), then to 5% RH (desorption) at a constant temperature of 25° C., with a hold time of 60 minutes per step.
In three DVS experiments, the relative humidity was varied as follows:
Expt. 4: 0% for 6 h→5% for 1 h→15% for 1 h→25-85% gradient over 2 h→95 for 5 h RH

[4] = for solid form (XRPD, analyzed wet): slurry in Water, 25° C.
Procedure: In a second set of slurry experiments, the same amounts of Form A and Form B were weighed into 1.8 mL vials, and charged with a stirring bar. After addition of the solvent, the slurries were placed at 25° C. and 50° C., under stirring. Material from the slurries was sampled at the time points of 2, 4 and 14 days (sampling from the same vial per solvent and per temperature). These materials were analyzed wet by XRPD and digital imaging.

[5] = 24 h
Procedure: (§1) For each medium, a standard 1.8 mL screw cap vial was charged with circa 40 mg of the starting material, 400 μl of solvent and a magnetic stirring bar (in the cases of chloroform and dichloromethane 200 μl of solvent were used). The vials were subsequently closed and equilibrated at the corresponding temperature for 24 h while stirring. The liquid part was retrieved with a syringe and filtered (0.5 micron filter); the isolated mother liquors were diluted to two dilutions selected according to the calibration curve. Quantities of the API in the diluted solutions were determined via HPLC analysis (DAD). […] Subsequently, the separated solids were measured wet by XRPD to confirm the solid form of which the solubility was measured.

[6] = Compression tests; format: physicochemical; conditions: 3 and 6 ton/cm^2 for one minute
Procedure: Compression tests were performed on brigatinib Form A in order to determine whether pressure-induced phase transformations or loss of crystallinity occurred. The press used was an Atlas Manual 25 Ton Hydraulic Press (from SPECAC). Experiments were carried out at 3 and 6 ton/cm^2 for one minute in each case.

[7] = physchem; conditions: thermodynamic from solid; for solubility at 24 h: Solub
Procedure: as §1

[8] = Intrinsic dissolution rate (IDR); format: physicochemical
Procedure: For measuring the intrinsic dissolution rate (IDR), the starting material was tableted using a mini-IDR compression system (pION/Heath Scientific). For preparation of the tablets, approximately 11 mg of material was pressed in the cylindrical hole of a passivated stainless steel die, to a uniform, flat surface, with an exposed area of 0.072 cm^2. The pressure applied was approximately 50 bar for 3-5 min. The sample die was inserted in a cylindrical Teflon rotating disk carrier containing an embedded magnetic stirring bar at its base. The die/stirrer assembly was placed in a flat bottomed glass vial, ready for dissolution analysis.
The dissolution rate was measured in 20 mL of solvent (medium) and the path length of the UV meter was 2 mm. Applied stirring speed during measurement was 100 rpm. Measurements were performed at 20° C. and 37° C.
In the first series, the IDR of Forms A and B were determined in monoplicate. […] In FIGS. 30-37, the IDRs are plotted for comparison between the forms and the same medium or between various media and the same form. The IDR of each of Forms A and B in the various media increases with increasingly acidic media (see FIGS. 34-37).
In several cases, the results were counter-intuitive. […] The results of these additional experiments are plotted in FIGS. 38-42.

[9] = physchem; conditions: thermodynamic from solid
[10] = ground for 5 hours
Procedure: Grinding experiments were performed to obtain amorphous brigatinib. […] In a mechanical stress test via grinding, a sample of Form A was ground for 2, 3, 4 and 5 hours. Recovered solids were analyzed by XRPD and HPLC.
Grinding. Two grinding experiments were performed on samples of Form A with two different durations (30 and 60 min) at a frequency of 30 Hz. […] Mechanical stress via grinding experiments were also performed, with grinding times of 2, 3, 4, and 5 hours.

[11] = not given; remark: listed apart in the source
[12] = 37 °C, pH 1, simulated gastric fluid
[13] = 30° C., sample started as the labelled form
[14] = VT-XRPD, sample started as the labelled form

SMILES: COc1cc(N2CCC(N3CCN(C)CC3)CC2)ccc1Nc1ncc(Cl)c(Nc2ccccc2P(C)(C)=O)n1 [Form A, brigatinib]
- Concentration at 10 min [1]: 70 µg/mL
- Concentration at 20 h [1]: 140 µg/mL
- Phase transition with humidity (VH-XRPD) ([2]; 30 and 60° C.): did not show any phase transition
- Mass loss by TGMS after humidity exposure (water adsorbed) ([2]; exposed for 2 h at 80% RH): 0.35%
- Water molecules adsorbed after humidity exposure ([2]; exposed for 2 h at 80% RH): 0.1 water molecules
- Hygroscopicity (DVS) ([3]; 5% to 95% RH, then to 5% RH, 25° C., 60 minutes per step): not hygroscopic
- Hygroscopicity [3]: not hygroscopic
- solid form (XRPD, analyzed wet) ([4]; 2 Days): A + D
- solid form (XRPD, analyzed wet) ([4]; 4 days): A + D
- Solub [5]: 0.1 ± 0.0 mg/mL
- Phase transformation on heating (VT-XRPD) (25 to 200° C.): did not reveal any phase transformation
- Phase transformation under pressure (XRPD) [6]: no phase transitions or peak shifts
- Purity by HPLC after compression [6]: comparable to that of the starting material
- solubility at 24 h ([7]; 25 °C, pH 1, simulated gastric fluid): 60.4 ± 2.9 mg/mL (≈ 103 mM)
- solubility at 24 h ([7]; 25 °C, pH 4.5, aqueous buffer): 24.4 ± 1.2 mg/mL (≈ 41.8 mM)
- solubility at 24 h ([7]; 25 °C, pH 6.8, aqueous buffer): 8.6 ± 1.4 mg/mL (≈ 14.7 mM)
- solubility at 24 h ([7]; 25 °C, water): 0.11 mg/mL (≈ 0.188 mM)
- solubility at 24 h [7, 12]: 70.6 ± 1.5 mg/mL (≈ 121 mM)
- solubility [7, 12]: 70 mg/mL (≈ 120 mM)
- solubility at 24 h ([7]; 37 °C, pH 4.5, aqueous buffer): 26 mg/mL (≈ 44.5 mM)
- solubility ([7]; 37 °C, pH 4.5, aqueous buffer): 26 mg/mL (≈ 44.5 mM)
- solubility ([7]; 37 °C, pH 6.5, aqueous buffer): 6 mg/mL (≈ 10.3 mM)
- solubility at 24 h ([7]; 37 °C, pH 6.8, aqueous buffer): 6.2 ± 0.1 mg/mL (≈ 10.6 mM)
- solubility at 24 h ([7]; 37 °C, simulated gastric fluid): 51.7 ± 0.6 mg/mL (≈ 88.5 mM)
- solubility ([7]; simulated gastric fluid): 52 mg/mL (≈ 89 mM)
- Amount that could be dissolved in the stomach together with a 200 ml glass of water ([8]; numbers are only indicative): about 50 mg
- Concentration reached in IDR measurement ([8]; pH 1.0 and SGF, within 5 min): ~250 µg/mL
- Solid form stability when slurried (IDR experiments) ([8]; water, SGF, and pH 1.0 aqueous buffer): remains stable
- solubility ([9]; pH 1.7, simulated gastric fluid): 177 mg/mL (≈ 303 mM)
- solubility ([9]; pH 2.4, aqueous buffer): 329 mg/mL (≈ 563 mM)
- solubility ([9]; pH 3.6, aqueous buffer): 173 mg/mL (≈ 296 mM)
- solubility ([9]; pH 6.2, aqueous buffer): 8 mg/mL (≈ 13.7 mM)
- solubility ([9]; pH 7.2, aqueous buffer): 11 mg/mL (≈ 18.8 mM)
- Solid state after grinding (XRPD) [10]: almost completely amorphous

SMILES: COc1cc(N2CCC(N3CCN(C)CC3)CC2)ccc1Nc1ncc(Cl)c(Nc2ccccc2P(C)(C)=O)n1 [Form B, brigatinib]
- Humidity level at which Form B converts to the hydrated Forms C and D ([2]; 30° C., reversible): above 60 % RH
- RH at which Form B starts to convert to hydrated Form C (sorption) [2, 13]: about 65 % RH
- RH at which Form C starts to dehydrate to Form B (desorption) [2, 13]: about 30 % RH
- RH at which conversion to Form B was complete (desorption) [2, 13]: 10 % RH
- RH at which conversion to Form C was complete (sorption) [2, 13]: 80 % RH
- Solid form after DVS cycle (XRPD) ([3]; Expt. 1 (5%→95%→65% RH)): hydrated Form C
- Water adsorbed during sorption ([3]; Expt. 1 (5%→95%→65% RH), between 45-95% RH): 2.26 molecules of water
- Change in mass during desorption after about 75% RH ([3]; Expt. 2): about 5.2%
- Gained mass during desorption until about 25% RH ([3]; Expt. 2): 4.2%
- Mass increase at 85% RH during desorption ([3]; Expt. 2): 17.4%
- Maximum change in mass as water molecules ([3]; Expt. 2): 5.6 water molecules
- Water molecules during desorption after about 75% RH ([3]; Expt. 2): about 1.7 water molecules
- Water molecules during desorption until about 25% RH ([3]; Expt. 2): 1.4 water molecules
- Solid form after DVS cycle (XRPD) ([3]; Expt. 2 (5%→95%→5% RH)): mixture of Forms B and C
- Mass change, first sorption step ([3]; Expt. 2 (5%→95%→5% RH), between 45-85% RH): 6.45%
- Water molecules, first sorption step ([3]; Expt. 2, between 45-85% RH): 2.1 water molecules
- Total change in mass, second sorption step ([3]; Expt. 2, between 85% and 95% RH): 16.7%
- Total change in mass at 95% RH ([3]; Expt. 3): 15.88%
- Total change in mass at 95% RH as water molecules ([3]; Expt. 3): 5.15 water molecules
- Solid form after DVS cycle (XRPD) ([3]; Expt. 3 (5%→95% RH)): Forms B+C
- Change in mass, first step ([3]; Expt. 3 (5%→95% RH), between 45-85% RH): 5.59%
- Water molecules, first step ([3]; Expt. 3, between 45-85% RH): 1.8 water molecules
- Maximum change in mass as water molecules ([3]; Expt. 4): 7.2 water molecules
- Solid form after DVS cycle (XRPD) ([3]; Expt. 4): Forms C+D
- Maximum change in mass ([3]; Expt. 4 (longer equilibration; up to 95% RH for 5 h)): 22.2%
- Hygroscopicity [3]: hygroscopic
- Solid form conversion in slurry with Form A (XRPD, wet) ([4]; all organic solvents and water at 37° C., sampled at 2, 4 and 14 days): converted to Form A
- Solid form conversion in slurry with Form A (XRPD, wet) ([4]; water at 25° C. (aqueous environment), 2 and 4 days): converted to Form D
- Temperature at which (partial) conversion to Form A was observed [14]: 150 °C
- Temperature at which conversion to Form A was complete [14]: 155 °C
- Temperature of solid-solid transition to Form A (ambient humidity, increasing temperature, not reversible): about 150 °C
- Solid form after humidity exposure ([11]; 90% RH for one day): converted to a mixture of Forms C and D
- Solid form conversion on slurrying (XRPD, wet) ([11]; room temperature, water, HCl buffer of pH 1.0): converted to the heptahydrate Form D after 45 min
